Laboratory results published in patent publication US10844013B2, “Phenyl amino piperidine mTORC inhibitors and uses thereof” (Navitor Pharmaceuticals, Inc., priority 2016, dated 2020).

Legend:
Type in all cases: cell-based
[1] = tested on: pS6K1 (p-p70 S6 Kinase (Thr389)) in MCF-7 cells; assay: AlphaLISA Ultra pS6K1 assay; conditions: Homo sapiens, MCF7, 2 h, 2 hours compound incubation
How it was run: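 MCF-7 cells seeded 20–24 h, medium refreshed 2 h, then treated 2 h with compound (0.5% DMSO final). Lysates probed for Thr389-phosphorylated p70 S6K by AlphaLISA Ultra, 2 h acceptor then 2 h donor bead incubation, read on a multimode reader.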

[2] = tested on: pAKT (p-Akt 1/2/3 (Ser473)) in MCF-7 cells; assay: AlphaLISA Ultra pAKT assay; conditions: Homo sapiens, MCF7, 2 hours compound incubation
How it was run: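 AlphaLISA read-out (2 h acceptor-bead, then 2 h donor-bead incubation) on thawed lysates of MCF-7 cells exposed to compounds for 2 h in 0.5% DMSO. Cells had been plated 20-24 h and given fresh medium 2 h before dosing.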

MCF-7 cells [3] = assay: Radioactive glucose uptake in MCF-7 cells; conditions: Homo sapiens, MCF7, 3H-2DG uptake
Procedure: Example 157: Radioactive Glucose Uptake in MCF-7 Cells
Assay Protocol • 1. Seed approximately 12,000 MCF-7 cells cultured without insulin per well in 96-well plates (BIOCOAT, #356690) and let the cells sit in hood for 30 min. (Cell culture medium: DMEM+10% FBS). • 2. Put the cell culture plates in TC incubator (5% CO2, 37° C.) and incubate overnight. • 3. Take out the cell plates and wash with prewarmed KRH buffer (37° C.) three times using BioTek plate washer. (KRH buffer preparation: 136 mM NaCl, 4.7 mM KCl, 1.25 mM MgCl2, 1.2 mM CaCl2), 20 mM HEPES, 0.1 mg/ml sodium pyruvate, 0.1% BSA, pH 7.4). • 4. Compound preparation and treatment: • a) Add 12 ul compound stock in 100% DMSO to the first column of Echo LDV plate • b) Serially dilute the compound solution in 100% DMSO (4 uL+8 uL DMSO) using Bravo for 9 doses • c) Dispense 350 nL compounds using Echo to the working plate. • d) i) Without compound preincubation condition, dispense 116 uL KRH buffer containing tritiated 2-deoxy-D-glucose (3H-2DG) and 2-deoxy-D-glucose (2DG) to the working plate and mix. • ii. With compound preincubation condition, dispense 110 uL KRH buffer only to the working plates and mix • e) Keep the compound working plate at 37° C. incubator until use • 5. Discard the KRH buffer (cells were kept in KRH buffer for 10-15 min before 2-DG addition) and transfer 100 uL compound working solution out to the cell culture plate using Bravo. Incubate for 20 mins at 37° C. (2DG final at 0.2 mM, 3H-2DG at 10 uCi/mL). • 6. Add prewarmed 50 uL KRH buffer (37° C.) containing 60 mM cold 2DG to the wells to stop the 2DG uptake using Multidrop combi • 7. Wash the cells with prewarmed PBS three times using BioTek plate washer • 8. Add 50 uL lysis buffer (0.1 M NaOH) into the assay plate to lyse the cells using Bravo and shake at 800 rpm for 30 min. • 9. Mix and transfer 20 uL lysate to a new white plate (Corning, #3610) and add 200 uL MicroScint-20 using Bravo • 10. Shake the plate at 1000 rpm for 30 min and count in a MicroBeta plate reader.

MCF-7 cells [4] = assay: ATP/Rotenone assay, glucose dose response, MCF-7 cells; conditions: Homo sapiens, MCF7, 10 uM rotenone pre-treat, 15 min glucose, Celltiter-Glo
Procedure: (§1) Example 158: ATP/Rotenone Assay
(§2) Day 1: Plate cells in Corning 96-Well Clear Bottom Black Polystyrene Microplates (corning 3340) in Glucose-free DMEM+10% dFBS • 80 uL/well • 25,000 cells/well for 293T • 10,000 cells/well for MCF7
(§3) Glucose DR to Establish Glucose EC50
(§4) • 1. […] Determine Compound IC50s • 1. 1 h pre-treat Rotenone/compound solution • Make 9× (90 uM) rotenone: 10 mM stock of Rotenone fresh—dilute 1:111× in Glucose-free DMEM). • Make compound dilution series in DMSO then dilute 1:111 in 90 uM rotenone in glucose-free media • Add 10 uL of 9× rotenone/compound solutions per well • 2. Stimulate with glucose for 15 min • Make glucose DR at 10× concentration in glucose-free DMEM • Add 10 uL per well and incubate at 37° C. for 15 min 3. Reconstitute and Measure • Remove plate, immediately add 100 uL of reconstituted Celltiter-Glo reagent (Promega; G7570) per well • Shake plate covered for 10 min at room temperature • Let plate sit for 2-5 min, read luminescence • Calculate IC50 for compounds

293T cells = assay: ATP/Rotenone assay, glucose dose response, 293T cells; conditions: Homo sapiens, HEK-293T, 10 uM rotenone pre-treat, 15 min glucose, Celltiter-Glo
Procedure: as §1, §2, §3, §4

| Structure (SMILES) | IC50 [1] | IC50 [2] | IC50 (MCF-7 cells [3]) | EC50 (MCF-7 cells [4]) | EC50 (293T cells) |
| --- | --- | --- | --- | --- | --- |
| Cc1cc(C)c(C(=O)N2CCN(c3nnnn3C)[C@H](CO)C2)cc1NC1CCN(c2ccccc2C#N)CC1 [I-91, (S)-2-(4-(5-(3-(Hydroxymethyl)-4-(1-methyl-1H-tetrazol-5-yl)piperazine-1-carbonyl)-2,4-dimethylphenylamino)piperidin-1-yl) benzonitrile] | 5 to 10 µM | > 10 µM | 1 to 3 µM |  |  |
| Cc1cc(C)c(C(=O)N2CCN(c3cc(F)ccn3)[C@H](CO)C2)cc1NC1CCN(c2ccccc2C#N)CC1 [I-100, (S)-2-(4-(5-(4-(4-Fluoropyridin-2-yl)-3-(hydroxymethyl)piperazine-1-carbonyl)-2,4-dimethylphenylamino)piperidin-1-yl)benzonitrile] | 0.01 to 1 µM | > 10 µM | 0.01 to 1 µM |  |  |
| Cc1cccc(N2CCN(C(=O)c3cc(NC4CCN(c5ccccc5C#N)CC4)c(C)cc3C)C[C@H]2CO)n1 [I-102, (S)-2-(4-(5-(3-(Hydroxymethyl)-4-(6-methylpyridin-2-yl)piperazine-1-carbonyl)-2,4-dimethylphenylamino)piperidin-1-yl)benzonitrile] | 0.01 to 1 µM | > 10 µM | 0.01 to 1 µM |  |  |
| Cc1cc(C)c(S(=O)(=O)N2CCN(c3ccccc3S(N)(=O)=O)CC2)nc1NC1CCN(c2ccccc2C#N)CC1 [I-111, 2-(4-(6-(1-(2-Cyanophenyl)piperidin-4-ylamino)-3,5-dimethylpyridin-2-ylsulfonyl)piperazin-1-yl)benzenesulfonamide] | 0.01 to 1 µM | > 10 µM | 0.01 to 1 µM |  |  |
| Cc1ccc(C(=O)N2CCN(c3cccnc3S(N)(=O)=O)CC2)c(C)c1NC1CCN(c2ccccc2C#N)CC1 [I-121, 3-(4-(3-(1-(2-cyanophenyl)piperidin-4-ylamino)-2,4-dimethylbenzoyl)piperazin-1-yl)pyridine-2-sulfonamide] | 0.01 to 1 µM | > 10 µM | 0.01 to 1 µM |  |  |
| COc1ccccc1N1CCC(Nc2cc(C(=O)N3CCN(c4ccccc4S(N)(=O)=O)CC3)c(C)cc2C)CC1 [I-128, 2-(4-(5-(1-(2-Methoxyphenyl)piperidin-4-ylamino)-2,4-dimethylbenzoyl)piperazin-1-yl)benzenesulfonamide] | 0.01 to 1 µM | > 10 µM | 0.01 to 1 µM |  |  |
| Cc1cc(C)c(C(=O)N2CCN(c3ccccc3S(N)(=O)=O)CC2)cc1NC1CN(c2ccccc2C#N)C1 [I-130, 2-(4-(5-(1-(2-Cyanophenyl)azetidin-3-ylamino)-2,4-dimethylbenzoyl)piperazin-1-yl)benzenesulfonamide] | 3 to 5 µM | > 10 µM | 3 to 5 µM |  |  |
| Cc1cc(C)c(C(=O)N2CCN(c3ccccn3)C(=O)C2)c(C)c1NC1CCN(c2ccccc2C#N)CC1 [I-138, 2-[4-({2,4,6-trimethyl-3-[3-oxo-4-(pyridin-2-yl)piperazine-1-carbonyl]phenyl}amino)piperidin-1-yl] benzonitrile] | 0.01 to 1 µM | > 10 µM | 0.01 to 1 µM |  |  |
| Cc1cc(C)c(C(=O)N2CCN(c3cccnn3)[C@H](CO)C2)c(C)c1NC1CCN(c2ccc(F)cc2C#N)CC1 [I-141, 5-Fluoro-2-[4-[3-[(3S)-3-(hydroxymethyl)-4-pyridazin-3-yl-piperazine-1-carbonyl]-2,4,6-trimethyl-anilino]-1-piperidyl]benzonitrile] | 0.01 to 1 µM | > 10 µM | 0.01 to 1 µM |  |  |
| Cc1cc(C)c(C(=O)N2CCN(c3ccccn3)[C@H](CO)C2)c(C)c1NC1CCN(c2cccnn2)CC1 [I-159, [(2S)-1-(pyridin-2-yl)-4-(2,4,6-trimethyl-3-{[1-(pyridazin-3-yl)piperidin-4-yl]amino}benzoyl)piperazin-2-yl]MeOH] | 0.01 to 1 µM | > 10 µM | 0.01 to 1 µM |  |  |
| Cc1cc(C)c(C(=O)N2CCN(c3ccccc3)[C@H](CO)C2)c(C)c1NC1CCN(c2ccncn2)CC1 [I-166, [(3S)-3-(Hydroxymethyl)-4-phenyl-piperazin-1-yl]-[2,4,6-trimethyl-3-[(1-pyrimidin-4-yl-4-piperidyl)amino]phenyl]methanone] | 1 to 3 µM | > 10 µM | > 10 µM |  |  |
| Cc1cc(C)c(C(=O)N2CCN(c3ccccc3S(N)(=O)=O)CC2)cc1N[C@@H]1CCN(c2ccccc2C#N)C[C@@H]1C [I-171, 2-(4-(5-(((3S,4R)-1-(2-cyanophenyl)-3-methylpiperidin-4-yl)amino)-2,4-dimethylbenzoyl)piperazin-1-yl)benzenesulfonamide] | 0.01 to 1 µM | > 10 µM | 0.01 to 1 µM |  |  |

Second part, led by results:

| IC50 [1] | IC50 [2] | IC50 (MCF-7 cells [3]) | EC50 (MCF-7 cells [4]) | Structure (SMILES) | EC50 (293T cells) |
| --- | --- | --- | --- | --- | --- |
| 0.01 to 1 µM | > 10 µM | 0.01 to 1 µM |  | Cc1cc(C)c(C(=O)N2CCN(c3cccc(F)c3S(N)(=O)=O)C[C@@H]2C)c(C)c1NC1CCN(c2ccc(F)cc2C#N)CC1 [I-182, (S)-2-(4-(3-((1-(2-cyano-4-fluorophenyl)piperidin-4-yl)amino)-2,4,6-trimethylbenzoyl)-3-methylpiperazin-1-yl)-6-fluorobenzenesulfonamide] |  |
| 0.01 to 1 µM | > 10 µM | 0.01 to 1 µM |  | Cc1cc(C)c(C(=O)N2CCN(c3cccc(F)c3[S@@](C)(=N)=O)C[C@@H]2C)c(C)c1NC1CCN(c2ccc(F)cc2C#N)CC1 [I-191, 5-fluoro-2-(4-(3-((2S)-4-(3-fluoro-2-(S-methylsulfonimidoyl)phenyl)-2-methylpiperazine-1-carbonyl)-2,4,6-trimethylphenylamino)piperidin-1-yl)benzonitrile] |  |
| 0.01 to 1 µM | > 10 µM | 0.01 to 1 µM |  | Cc1cc(C)c(C(=O)N2CCN(c3cccnn3)[C@H](CN)C2)c(C)c1NC1CCN(c2ccccc2C#N)CC1 [I-194, (R)-2-(4-(3-(3-(aminomethyl)-4-(pyridazin-3-yl)piperazine-1-carbonyl)-2,4,6-trimethylphenylamino)piperidin-1-yl)benzonitrile] |  |
| 1 to 3 µM | > 10 µM | 3 to 5 µM |  | Cc1cc(C)c(C(=O)N2CCN(c3cccnn3)[C@H](CN)C2)c(C)c1NC1CCN(c2ccc(F)cc2C#N)CC1 [I-195, (R)-2-(4-(3-(3-(aminomethyl)-4-(pyridazin-3-yl)piperazine-1-carbonyl)-2,4,6-trimethylphenylamino)piperidin-1-yl)-5-fluorobenzonitrile] |  |
|  |  |  | ~250 µM | O=C[C@H](O)[C@@H](O)[C@H](O)[C@H](O)CO [glucose] | ~1000 µM |
